Columns and labels:
[1] = In vivo antagonist activity at TRL9 in C57BL/6 mouse assessed as inhibition of ODN1585 stimulated IL-6 production at 3 mg/kg,po for 30 minutes and followed by ODN1585 addition measured after 90 mins by ELISA analysis relative to control; type: functional; parameters: scale not given: the % may be the effect or the level left; details: time 120 min, 2 h
[2] = Toxicity in MRL/Ipr Systemic lupus erythematosus mouse model assessed as relative spleen weight at 0.1 mg/kg, po administered for 8 weeks and measured 24 hrs post final relative to control; type: organism-based; details: in vivo, 1368 h
[3] = In vivo antagonist activity at TRL7 in C57BL/6 mouse assessed as inhibition of gardiquimod stimulated IL-6 production at […],po for 30 minutes and followed by gardiquimod addition measured after 90 mins by ELISA analysis relative to control; type: functional; parameters: scale not given: the % may be the effect or the level left; details: time 120 min, 2 h
Mus musculus [4] = assay: Anti-inflammatory activity against MRL/Ipr Systemic lupus erythematosus mouse model assessed as inhibition of urinary NGAL at 0.1 mg/kg, po administered for 8 weeks and measured 24 hrs post final dose relative to control; type: functional; parameters: scale not given: the % may be the effect or the level left; details: time 1368 hrs
[5] = In vivo antagonist activity at TRL9 in C57BL/6 mouse assessed as inhibition of ODN1585 stimulated IL-6 production at 10 mg/kg,po for 30 minutes and followed by ODN1585 addition measured after 90 mins by ELISA analysis relative to control; type: functional; parameters: scale not given: the % may be the effect or the level left; details: time 120 min, 2 h
[6] = Plasma protein binding in mouse assessed as free fraction; type: ADME, cell-free
[7] = Clearance in mouse blood at 5 mg/kg, iv; type: ADME, organism-based
[8] = Plasma protein binding in rat assessed as free fraction; type: ADME, cell-free
Toll-like receptor 8 = target: T1, Toll-like receptor 8 (Homo sapiens, UniProt Q9NR97)
T1 sequence (Q9NR97 whole entry): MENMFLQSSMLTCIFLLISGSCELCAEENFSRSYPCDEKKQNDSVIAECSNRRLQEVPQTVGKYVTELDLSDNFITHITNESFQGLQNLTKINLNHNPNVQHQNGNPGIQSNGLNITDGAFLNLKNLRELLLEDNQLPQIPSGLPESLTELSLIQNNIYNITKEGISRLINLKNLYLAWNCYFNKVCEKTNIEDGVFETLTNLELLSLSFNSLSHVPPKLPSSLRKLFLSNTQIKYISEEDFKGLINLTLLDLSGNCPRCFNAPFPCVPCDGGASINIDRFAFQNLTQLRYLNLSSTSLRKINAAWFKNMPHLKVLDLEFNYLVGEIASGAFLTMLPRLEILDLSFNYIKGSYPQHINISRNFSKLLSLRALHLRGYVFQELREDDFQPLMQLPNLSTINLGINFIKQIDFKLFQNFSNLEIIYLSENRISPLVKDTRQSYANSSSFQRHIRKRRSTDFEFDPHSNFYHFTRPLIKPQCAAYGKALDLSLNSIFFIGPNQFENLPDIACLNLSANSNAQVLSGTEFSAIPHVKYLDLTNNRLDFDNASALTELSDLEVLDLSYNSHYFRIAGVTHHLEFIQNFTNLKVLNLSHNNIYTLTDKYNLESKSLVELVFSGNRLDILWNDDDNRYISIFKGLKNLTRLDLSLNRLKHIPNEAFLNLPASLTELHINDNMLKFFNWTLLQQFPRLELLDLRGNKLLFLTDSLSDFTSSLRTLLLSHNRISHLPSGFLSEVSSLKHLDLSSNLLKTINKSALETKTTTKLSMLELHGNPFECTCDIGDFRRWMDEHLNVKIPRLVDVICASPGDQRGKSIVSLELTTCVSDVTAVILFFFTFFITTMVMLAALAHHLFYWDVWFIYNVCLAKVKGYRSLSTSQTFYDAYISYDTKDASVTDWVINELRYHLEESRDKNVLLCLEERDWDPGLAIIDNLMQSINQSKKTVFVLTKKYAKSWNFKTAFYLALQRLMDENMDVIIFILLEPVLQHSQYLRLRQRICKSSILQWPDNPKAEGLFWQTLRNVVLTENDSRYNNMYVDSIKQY

Mus musculus [9] = assay: Anti-inflammatory activity against MRL/Ipr Systemic lupus erythematosus mouse model assessed as inhibition of anti-dsDNA Ab titer at 20 mg/kg, po administered for 8 weeks and measured 24 hrs post final dose relative to control; type: functional; parameters: scale not given: the % may be the effect or the level left; details: time 1368 hrs
Mus musculus [10] = assay: Anti-inflammatory activity against MRL/Ipr Systemic lupus erythematosus mouse model assessed as inhibition of anti-Sm/RNP Ab titer at 20 mg/kg, po administered for 8 weeks and measured 24 hrs post final dose relative to control; type: functional; parameters: scale not given: the % may be the effect or the level left; details: time 1368 hrs
[11] = Toxicity in MRL/Ipr Systemic lupus erythematosus mouse model assessed as relative spleen weight at 20 mg/kg, po administered for 8 weeks and measured 24 hrs post final dose relative to control; type: organism-based; details: in vivo, 1368 h
Toll-like receptor 9 = target: T2, Toll-like receptor 9 (Mus musculus, UniProt Q9EQU3); assay: Antagonist activity at ODN-2216 stimulated TLR9 in mouse whole blood assessed as inhibition of IL-6 production by ELISA analysis; type: tissue-based
T2 sequence (Q9EQU3 whole entry): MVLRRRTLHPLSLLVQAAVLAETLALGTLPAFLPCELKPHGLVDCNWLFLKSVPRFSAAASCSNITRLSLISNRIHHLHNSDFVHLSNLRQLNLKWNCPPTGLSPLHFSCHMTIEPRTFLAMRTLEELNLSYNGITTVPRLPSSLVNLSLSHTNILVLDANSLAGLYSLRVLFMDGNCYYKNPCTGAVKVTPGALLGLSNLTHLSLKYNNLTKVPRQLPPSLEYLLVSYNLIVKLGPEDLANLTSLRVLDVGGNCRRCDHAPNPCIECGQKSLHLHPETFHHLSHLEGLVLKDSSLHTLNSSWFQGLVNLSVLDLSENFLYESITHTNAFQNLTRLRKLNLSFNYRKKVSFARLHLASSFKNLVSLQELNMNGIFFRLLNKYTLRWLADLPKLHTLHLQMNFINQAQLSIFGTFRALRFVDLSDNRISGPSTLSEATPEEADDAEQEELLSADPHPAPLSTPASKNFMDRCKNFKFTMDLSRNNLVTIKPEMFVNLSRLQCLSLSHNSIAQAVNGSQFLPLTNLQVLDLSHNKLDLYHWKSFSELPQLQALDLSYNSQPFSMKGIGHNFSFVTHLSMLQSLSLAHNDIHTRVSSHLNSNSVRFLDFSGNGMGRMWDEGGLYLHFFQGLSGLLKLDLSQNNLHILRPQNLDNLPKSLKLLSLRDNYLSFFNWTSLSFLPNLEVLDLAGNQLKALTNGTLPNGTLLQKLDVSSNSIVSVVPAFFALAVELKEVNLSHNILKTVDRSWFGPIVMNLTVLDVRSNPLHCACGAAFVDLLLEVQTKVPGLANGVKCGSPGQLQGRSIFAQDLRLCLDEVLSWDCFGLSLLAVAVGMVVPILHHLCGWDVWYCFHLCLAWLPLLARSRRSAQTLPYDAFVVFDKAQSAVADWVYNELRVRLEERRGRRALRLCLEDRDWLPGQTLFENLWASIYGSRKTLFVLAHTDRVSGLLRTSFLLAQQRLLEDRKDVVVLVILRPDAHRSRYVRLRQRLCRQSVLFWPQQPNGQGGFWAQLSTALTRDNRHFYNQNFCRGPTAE

Cc1cc(-c2[nH]c3ccc(C4CCNCC4)cc3c2C(C)C)cc(C)n1
Activity [1]: 29%
Activity [2]: 28%
Activity [3]: 16%
Activity (Mus musculus [4]): 52%
Activity [5]: 33%
fraction unbound [6]: 0.05
clearance [7]: 146 mL/min/kg
fraction unbound [8]: 0.11
IC50 (Toll-like receptor 8): 4.2 nM
Activity (Mus musculus [9]): 53%
Activity (Mus musculus [10]): 82%
Activity [11]: 51%
IC50 (Toll-like receptor 9): > 5000 nM

Source: ChEMBL document CHEMBL5131534, “Identification of 2-Pyridinylindole-Based Dual Antagonists of Toll-like Receptors 7 and 8 (TLR7/8)” (ACS Med Chem Lett, 2022)
